Laboratory results as given in EP0109294A2, “Cephalosporin esters” (Takeda Chemical Industries, Ltd., priority 1982, dated 1984).
Structures can show the parent of a compound that is named as a salt.

Assay: in vivo
Parameters: species or system mice
Conditions: mouse, 100 mg/kg; for Bio-availability / AUC / Plasma level of non-ester 2 hr: 120 min; for Plasma level of non-ester 0.25 hr / Plasma level of non-ester 0.5 hr / Plasma level of non-ester 1 hr / AUC / Plasma level of non-ester 2 hr: po; for Plasma level of non-ester 0.25 hr: 15 min; for Plasma level of non-ester 0.5 hr: 30 min; for Plasma level of non-ester 1 hr: 60 min
Description: The compounds produced according to the Examples (Compound Nos. 2, 4, 6 and 8) and, as a reference control, pivaloyloxymethyl ester of compound (II) (hereinafter referred to as Compound A) are orally administered to mice at a common dose level of 100 mg/kg (as the non-ester, i.e. compound (II) per mouse). After administration, the plasma concentrations of compound (II) at 0.25, 0.5, 1.0 and 2.0 hours are determined by the cup assay method (using Proteus mirabilis Eb 313 as the test organism) and the area under plasma concentration- time curve (AUC) over 0 to 2 hours is calculated.
As a control, compound (II) is subcutaneously administered to mice at the same dose and the AUC is similarly calculated.

SMILES	Bio-availability	Plasma level of non-ester 0.25 hr [ng/mL]	Plasma level of non-ester 0.5 hr [ng/mL]	Plasma level of non-ester 1 hr [ng/mL]	AUC [ng·h/mL]	Plasma level of non-ester 2 hr [ng/mL]	AUC at 2 h (sc) [ng·h/mL]	concentration at 0.25 h (sc) [ng/mL]	concentration at 0.5 h (sc) [ng/mL]	concentration at 1 h (sc) [ng/mL]	concentration at 2 h (sc) [ng/mL]	Bio-availability (sc)
CN(C)CCn1nnnc1SCC1=C(C(=O)OCOC(=O)C(C)(C)C)N2C(=O)[C@@H](NC(=O)Cc3csc(N)n3)[C@H]2SC1 [Compound A, pivaloyloxymethyl ester of compound (II), reference compound]	41.8	21000	16200	6100	16200	600						
CC(OC(=O)CC1CCCCC1)OC(=O)C1=C(CSc2nnnn2CCN(C)C)CS[C@@H]2[C@H](NC(=O)Cc3csc(N)n3)C(=O)N12 (stereo partly drawn) [Compound No. 2, 1-(Cyclohexylacetoxy)ethyl 7β-[2-(2-aminothiazol-4-yl)acetamido]-3-[[[1-(2-dimethylaminoethyl)-1H-tetrazol-5-yl]thio]methyl] ceph-3-em-4-carboxylate dihydrochloride]	107.7	43900	45200	16400	41800	3100						
CC(OC(=O)CC1CCCC1)OC(=O)C1=C(CSc2nnnn2CCN(C)C)CS[C@@H]2[C@H](NC(=O)Cc3csc(N)n3)C(=O)N12 (stereo partly drawn) [Compound No. 6, 1-(Cyclopentylacetoxy)ethyl 7β-[2-(2-aminothiazol-4-yl)acetamido]-3-[[[1-(2-dimethylaminoethyl)-1H-tetrazol-5-yl]thio]methyl] ceph-3-em-4-carboxylate dihydrochloride]	82.2	23200	27200	16900	31900	6460						

Second part, the compound after the results:

Bio-availability	Plasma level of non-ester 0.25 hr [ng/mL]	Plasma level of non-ester 0.5 hr [ng/mL]	Plasma level of non-ester 1 hr [ng/mL]	AUC [ng·h/mL]	Plasma level of non-ester 2 hr [ng/mL]	AUC at 2 h (sc) [ng·h/mL]	concentration at 0.25 h (sc) [ng/mL]	concentration at 0.5 h (sc) [ng/mL]	concentration at 1 h (sc) [ng/mL]	concentration at 2 h (sc) [ng/mL]	Bio-availability (sc)	SMILES
76.2	43600	31700	8380	29600	1010							CC(OC(=O)C1=C(CSc2nnnn2CCN(C)C)CS[C@@H]2[C@H](NC(=O)Cc3csc(N)n3)C(=O)N12)OC(=O)C1CCCCC1 (stereo partly drawn) [Compound No. 4, 1-(Cyclohexanecarbonyloxy)ethyl 7β-[2-(2-amino-thiazol-4-yl)acetamido]-3-[[[1-(2-dimethylaminoethyl)-1H-tetrazol-5-yl]thio]methyl] ceph-3-em-4-carboxylate dihydrochloride]
78.3	42500	29900	10500	30400	1350							CC(OC(=O)C1=C(CSc2nnnn2CCN(C)C)CS[C@@H]2[C@H](NC(=O)Cc3csc(N)n3)C(=O)N12)OC(=O)C1CCCC1 (stereo partly drawn) [Compound No. 8, 1-(Cyclopentanecarbonyloxy)ethyl 7β-[2-(2-aminothiazol-4-yl)acetamido]-3-[[[1-(2-dimethylaminoethyl)-1H-tetrazol-5-yl]thio]methyl] ceph-3-em-4-carboxylate dihydrochloride]
						38800	69200	29000	13200	1500	100	CN(C)CCn1nnnc1SCC1=C(C(=O)O)N2C(=O)[C@@H](NC(=O)Cc3csc(N)n3)[C@H]2SC1 [compound (II), 7S-[2-(2-aminothiazol-4-yl)-acetamido]-3-[[[1-(2-dimethylaminoethyl)-1H-tetrazol-5-yl]thio]methyl]ceph-3-em-4-carboxylic acid, reference compound]
